In the supplement of paper PMC11451515:

System: SEM cells
Assay: cell viability relative to DMSO control; higher = less cytotoxic
Conditions: 48 h
In short: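 Viability values are per-plate percentages of DMSO wells, with background from cell-free wells. Library compounds in DMSO were pin-dosed, in an 11-point threefold series from 47 μM to 0.79 nM, onto NOMO1 or SEM (500 cells/well) or P12-Ichikawa (1000 cells/well) leukemia cells in 1536-well plates (5 μl). Those cells had been adapted for at least four passages in each medium, and CellTiter-Glo One luminescence was read after 48 h at 37°C.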

[1] = HPLM + 10% dialyzed FBS, 0.000781 µM
[2] = HPLM + 10% dialyzed FBS, 0.00234 µM
[3] = HPLM + 10% dialyzed FBS, 0.00702 µM
[4] = HPLM + 10% dialyzed FBS, 0.0211 µM
[5] = HPLM + 10% dialyzed FBS, 0.0632 µM
[6] = HPLM + 10% dialyzed FBS, 0.19 µM
[7] = HPLM + 10% dialyzed FBS, 0.569 µM
[8] = HPLM + 10% dialyzed FBS, 1.71 µM
[9] = HPLM + 10% dialyzed FBS, 5.12 µM
[10] = HPLM + 10% dialyzed FBS, 15.4 µM
[11] = HPLM + 10% dialyzed FBS, 46.1 µM
[12] = RPMI 5 mM glucose + 10% FBS, 0.000781 µM
[13] = RPMI 5 mM glucose + 10% FBS, 0.00234 µM
[14] = RPMI 5 mM glucose + 10% FBS, 0.00702 µM
[15] = RPMI 5 mM glucose + 10% FBS, 0.0211 µM
[16] = RPMI 5 mM glucose + 10% FBS, 0.0632 µM
[17] = RPMI 5 mM glucose + 10% FBS, 0.19 µM
[18] = RPMI 5 mM glucose + 10% FBS, 0.569 µM
[19] = RPMI 5 mM glucose + 10% FBS, 1.71 µM
[20] = RPMI 5 mM glucose + 10% FBS, 5.12 µM
[21] = RPMI 5 mM glucose + 10% FBS, 15.4 µM
[22] = RPMI 5 mM glucose + 10% FBS, 46.1 µM
[23] = RPMI 5 mM glucose + 10% dialyzed FBS, 0.000781 µM
[24] = RPMI 5 mM glucose + 10% dialyzed FBS, 0.00234 µM
[25] = RPMI 5 mM glucose + 10% dialyzed FBS, 0.00702 µM
[26] = RPMI 5 mM glucose + 10% dialyzed FBS, 0.0211 µM
[27] = RPMI 5 mM glucose + 10% dialyzed FBS, 0.0632 µM
[28] = RPMI 5 mM glucose + 10% dialyzed FBS, 0.19 µM
[29] = RPMI 5 mM glucose + 10% dialyzed FBS, 0.569 µM
[30] = RPMI 5 mM glucose + 10% dialyzed FBS, 1.71 µM
[31] = RPMI 5 mM glucose + 10% dialyzed FBS, 5.12 µM
[32] = RPMI 5 mM glucose + 10% dialyzed FBS, 15.4 µM
[33] = RPMI 5 mM glucose + 10% dialyzed FBS, 46.1 µM

| Compound | cell viability [1] [%] | cell viability [2] [%] | cell viability [3] [%] | cell viability [4] [%] | cell viability [5] [%] | cell viability [6] [%] | cell viability [7] [%] | cell viability [8] [%] | cell viability [9] [%] | cell viability [10] [%] | cell viability [11] [%] | cell viability [12] [%] | cell viability [13] [%] | cell viability [14] [%] | cell viability [15] [%] | cell viability [16] [%] | cell viability [17] [%] | cell viability [18] [%] | cell viability [19] [%] | cell viability [20] [%] | cell viability [21] [%] | cell viability [22] [%] | cell viability [23] [%] | cell viability [24] [%] | cell viability [25] [%] | cell viability [26] [%] | cell viability [27] [%] | cell viability [28] [%] | cell viability [29] [%] | cell viability [30] [%] | cell viability [31] [%] | cell viability [32] [%] | cell viability [33] [%] |
| --- | --- | --- | --- | --- | --- | --- | --- | --- | --- | --- | --- | --- | --- | --- | --- | --- | --- | --- | --- | --- | --- | --- | --- | --- | --- | --- | --- | --- | --- | --- | --- | --- | --- |
| CC(O)C1C2C(C)\C(=C(/N2C1=O)C(O)=O)SC3CNC(C3)C(=O)N(C)C (stereo unspecified) | 79.6 | 64.9 | 84 | 88.8 | 90.4 | 81.4 | 86.7 | 82.3 | 90.7 | 77.9 | 78.5 | 80.9 | 77.2 | 85.2 | 90.7 | 84.1 | 75.7 | 92.2 | 85.4 | 90.7 | 83.9 | 90.6 | 86 | 68.8 | 98.7 | 92.7 | 104 | 107 | 90.8 | 90.2 | 104 | 88.3 | 73.9 |
| COc1cc(C)c(Sc2cnc(NC(=O)c3ccc(CNC(C)C(C)C)cc3)s2)cc1C(=O)N1CCN(C(C)=O)CC1 (stereo unspecified) | 119 | 134 | 124 | 118 | 96.6 | 105 | 96.2 | 104 | 81.7 | 42 | 108 | 115 | 135 | 111 | 129 | 109 | 112 | 110 | 112 | 73.9 | 43.4 | 121 | 124 | 141 | 116 | 118 | 121 | 118 | 109 | 102 | 79.9 | 49.7 | 132 |
| C[C@@]1(C(=O)Nc2ccc(F)nc2)CCCN1c1nc(Nc2cc(C3CC3)[nH]n2)c2cccn2n1 | 90.8 | 98.6 | 106 | 97.2 | 101 | 98.8 | 81.9 | 103 | 30.6 | 21.4 | 9.04 | 56.6 | 68.8 | 64.6 | 70.6 | 72.6 | 77.2 | 66.1 | 60.1 | 10.9 | 8.82 | 2.55 | 95.4 | 89.5 | 102 | 107 | 112 | 92.3 | 104 | 96.5 | 18.8 | 16.4 | 6.22 |
| NC(=O)OCC(COC(N)=O)c1ccccc1 | 91 | 99.6 | 102 | 87.3 | 101 | 86.1 | 103 | 104 | 92.8 | 91 | 90.6 | 119 | 121 | 104 | 119 | 113 | 113 | 102 | 115 | 99.8 | 117 | 105 | 99.7 | 107 | 99.4 | 115 | 111 | 99.9 | 109 | 99 | 97.9 | 101 | 105 |
| CNC(=O)[C@H](CC/1=C/N=C\2/C=C\C\C=C12)NC(=O)[C@H](CC(C)C)CC(=O)NO | 104 | 103 | 108 | 111 | 120 | 104 | 112 | 118 | 120 | 105 | 101 | 111 | 134 | 122 | 133 | 117 | 118 | 116 | 110 | 132 | 120 | 114 | 95 | 99.2 | 104 | 100 | 113 | 88.9 | 99.7 | 102 | 94.4 | 102 | 90.1 |
| CC/1=C(/N2[C@H](SC1)[C@H](NC(=O)C(N)C3=CC=CC=C3)C2=O)C(O)=O (stereo partly specified) | 99.3 | 113 | 119 | 110 | 108 | 120 | 120 | 124 | 114 | 126 | 131 | 128 | 118 | 117 | 132 | 155 | 138 | 129 | 141 | 136 | 122 | 131 | 115 | 119 | 137 | 143 | 129 | 140 | 132 | 142 | 132 | 130 | 134 |
| CN1CCN(C(=O)O[C@H]2c3nccnc3C(=O)N2c2ccc(Cl)cn2)CC1 | 103 | 105 | 99.8 | 104 | 101 | 89 | 108 | 97.9 | 105 | 39.8 | 95.8 | 101 | 106 | 109 | 111 | 109 | 96.6 | 99.9 | 116 | 108 | 43.4 | 89 | 110 | 105 | 113 | 111 | 102 | 105 | 110 | 110 | 103 | 30.6 | 95.6 |
| CN(C)C(=O)C(CCN1CCC(O)(c2ccc(Cl)cc2)CC1)(c1ccccc1)c1ccccc1 | 68.1 | 109 | 117 | 130 | 127 | 121 | 122 | 117 | 108 | 86.6 | 23.5 | 57.8 | 108 | 141 | 127 | 114 | 127 | 140 | 117 | 110 | 75.5 | 10.3 |  |  |  |  |  |  |  |  |  |  |  |
| C[C@H]1COC/2=C1/C(=O)C(=O)C3=C4CCCC(C)(C)C4=CC=C23 | 116 | 93.8 | 113 | 126 | 126 | 134 | 125 | 106 | 92.1 | 84.1 | 43.1 | 124 | 114 | 135 | 128 | 141 | 130 | 106 | 85.3 | 42.1 | 38.1 | 12.5 | 112 | 107 | 118 | 128 | 140 | 116 | 111 | 104 | 67.4 | 64.5 | 17.3 |
| O=C1NC(=O)/C(=C/c2ccc(-c3ccc(F)cc3O)o2)S1 | 127 | 118 | 110 | 122 | 123 | 111 | 111 | 102 | 124 | 94.1 | 87.1 |  |  |  |  |  |  |  |  |  |  |  | 114 | 129 | 120 | 122 | 112 | 121 | 111 | 84.6 | 87.3 | 98.6 | 74.8 |
| Cc1nc(Nc2n[nH]c3c2CN(C(=O)N[C@H](CN(C)C)c2ccccc2)C3(C)C)c2sccc2n1 | 72.2 | 70.6 | 51.6 | 66.4 | 52.6 | 48.5 | 36.6 | 23.8 | 15.7 | 2.46 | 4.3 | 91.2 | 85.9 | 62.8 | 79.1 | 60.3 | 47 | 46 | 25.7 | 15.2 | 1.75 | 3.09 | 82.2 | 73 | 70.1 | 82.1 | 64.2 | 55.1 | 50 | 30.4 | 21.4 | 2.4 | 3.71 |
| CC(C)(O)c1cc2nc(-c3cnc(N)nc3)nc(N3CCOCC3)c2s1 | 122 | 125 | 99.7 | 113 | 106 | 106 | 77.2 | 59.9 | 44.5 | 41 | 38 | 82.9 | 79.1 | 74.3 | 76 | 78.2 | 68.4 | 57.1 | 39.1 | 29.1 | 26.7 | 23.3 | 106 | 113 | 97.7 | 107 | 105 | 94.7 | 81.4 | 52.3 | 48.1 | 47.8 | 37.3 |
| COc1cc(CNC(=O)CCCC/C=C/C(C)C)ccc1O | 88.8 | 92.6 | 104 | 99 | 101 | 96.6 | 79.7 | 36.7 | 32.9 | 29.7 | 18.6 | 110 | 110 | 121 | 123 | 107 | 111 | 56.7 | 19.3 | 21.4 | 15.9 | 12.5 | 94.3 | 93.2 | 98.7 | 101 | 94.6 | 93.8 | 86.6 | 23.6 | 27.2 | 19 | 15.4 |
| CC(C)[C@H](N)C(=O)OCCOC[N]1C=NC2=C1\N=C(N)/NC2=O | 92.4 | 101 | 119 | 127 | 121 | 117 | 119 | 116 | 103 | 115 | 107 | 80.4 | 85.4 | 104 | 109 | 116 | 95.3 | 102 | 90.5 | 92.7 | 98.7 | 78 | 107 | 112 | 126 | 134 | 122 | 123 | 126 | 166 | 112 | 133 | 99 |
| CC/1=C(\O)C(=O)\C=C2/C1=C/C=C3\[C@@]2(C)CC[C@@]4(C)[C@@H]5C[C@@](C)(CC[C@]5(C)CC[C@]34C)C(O)=O | 109 | 102 | 102 | 119 | 113 | 109 | 118 | 97.6 | 10.9 | 8.14 | 5.78 | 126 | 97.9 | 102 | 117 | 118 | 111 | 110 | 85.7 | 8.55 | 7.7 | 6.91 | 97.7 | 91.4 | 103 | 79.8 | 112 | 89 | 108 | 61.1 | 8.59 | 9.09 | 6.92 |
| O=C(Nc1cccnn1)N1CCC(=Cc2cccc(Oc3ccc(C(F)(F)F)cn3)c2)CC1 | 81.8 | 86.8 | 84.4 | 21.1 | 94.9 | 98 | 92.5 | 85 | 90 | 81.3 | 75.6 | 104 | 115 | 112 | 17.1 | 119 | 127 | 121 | 139 | 118 | 103 | 87.8 | 92.8 | 92.6 | 89.8 | 17 | 113 | 112 | 106 | 98.4 | 93.7 | 78.3 | 55.8 |
